# Reference: US20110059076A1, “HUMAN SERUM ALBUMIN LINKERS AND CONJUGATES THEREOF” (priority 2008, published 2011)
# Entries after “also recorded” stand apart in the source; their conditions may differ.
# Tests used:
# [1] = tested on: BT474 breast tumor cells; test: cell cycle analysis by propidium iodide flow cytometry; format: cell-based; conditions: 72 hours treatment
# Experimental: After the end of treatment, cells are trypsinized, gently resuspended in hypotonic solution containing propidium iodide and single cells are analyzed by flow cytometry. Cell cycle distribution in G1 and S phases is measured using curve-fitting algorithms designed for cell cycle analysis (FlowJo software cell cycle platform).
# After the end of treatment, cells are trypsinized, gently resuspended in hypotonic solution containing propidium iodide and single cells are analyzed by flow cytometry. Cell cycle distribution in G1 and S phases is measured using curve-fitting algorithms designed for cell cycle analysis (FlowJo software cell cycle platform, Tree Star, Inc.). […] In a second experiment, the number of cell colonies formed following treatment with B2B3-1 is studied. […] Media only or media including treatment is replenished every 3 days. After 14 days the number of colonies is counted and compared to untreated cells.
# [2] = tested on: BT-474 cells; test: cell impedance proliferation assay (RT-CES); format: cell-based; conditions: calculated 68 hours after treatment, read-out: IC50 of inhibition of cell impedance
# [3] = tested on: SKOV-3 (human ovarian adenocarcinoma) xenograft; test: SKOV-3 xenograft model; format: in vivo, mice; conditions: SKOV-3, 30 mg/kg every 3 days
# Excerpt: (§1) Calu-3 (human lung adenocarcinoma; FIG. 17A), SKOV-3 (human ovarian adenocarcinoma; FIG. 17B), NCI-N87 (human gastric carcinoma; FIG. 17C), ACHN (human kidney adenocarcinoma; FIG. 17D), and MDA-MB-361 (human breast adenocarcinoma; FIG. 17E) xenograft model are shown.
# [4] = tested on: ACHN (human kidney adenocarcinoma) xenograft; test: ACHN xenograft model; format: in vivo, mice; conditions: ACHN (4.5×10^4 ErbB2 receptors/cell), 30 mg/kg every 3 days
# Excerpt: as §1
# [5] = tested on: MDA-MB-361 (human breast adenocarcinoma) xenograft; test: MDA-MB-361 xenograft model; format: in vivo, mice; conditions: MDA-MB-361, 30 mg/kg every 3 days
# Excerpt: as §1
# [6] = tested on: Cyclin D1 in BT-474-M3 cells; test: Cyclin D1 Western blot; format: cell-based; conditions: 72 hours
# Excerpt: The cytoskeleton protein vinculin is used as a protein loading control in this experiment.
# [7] = tested on: phosphorylated ErbB3 in BT-474-M3 xenograft tumors; test: pErbB3 Western blot of xenograft tumors; format: in vivo; conditions: 30 mg/kg every 3 days, 4 doses, harvested 24 hours after final dose
# Excerpt: Equal quantities of protein are loaded in each lane and total protein levels are controlled by probing for beta tubulin.
# [8] = tested on: BT-474-M3 shPTEN xenografts; test: BT-474-M3 shPTEN xenografts (reduced PTEN activity); format: in vivo, nude mice; conditions: 30 mg/kg B2B3-1 every 3 days or 10 mg/kg trastuzumab every week, i.p.
# Experimental: ShRNA technology is applied to knock out the activity of the tumor suppressor gene phosphatase and tensin homolog (PTEN) in BT-474-M3 breast cancer cells. Briefly, cultured BT-474-M3 cells are transfected with shPTEN or shControl RNA by retroviral transfection. Transfected cells with reduced PTEN are selected using FACS and subsequently injected subcutaneously into the right flank of nude mice to establish xenograft tumors. Cells transfected with a control vector are injected into the left flank of the same mouse. […] All injections are done i.p.
# [9] = tested on: BT-474-M3 xenograft tumors; test: q7d versus q3d dosing in BT-474-M3 xenografts; format: in vivo, athymic nude mice (nu/nu); conditions: intraperitoneal
# Experimental: Mice receive a subcutaneous estrogen-releasing implant in the opposite flank (0.72 mg pellet, 60 day, slow-release, Innovative Research of America, Sarasota, Fla.) 24 h prior to the injection of 20×10^6 human BT-474-M3cells in PBS. […] Tumors are measured twice a week using digital calipers. Tumor volume is calculated using the formula: π/6×(W^2×L), where W is the short diameter and L is the long diameter. […] PBS vehicle is used as a negative control.
substance,measurement,setting,value
B2B3-1: bispecific scFv antibody fusion: anti-ErbB3 scFv H3 and anti-ErbB2 scFv B1D2 joined by a modified human serum albumin (HSA) linker,population of cells in G1 phase,[1],increase; also recorded: G1 arrest
same,population of cells in S phase,[1],modestly decrease
same,IC50,[2],33 nM
same,tumor size reduction,[3],efficacious
same,tumor size reduction,[4],worked less well
same,tumor size reduction,[5],efficacious
same,levels of Cyclin D1 compared to untreated cells,[6],decrease
same,pErbB3 in tumors compared to HSA treated tumors,[7],significantly less pErbB3
same,size of tumors formed by BT-474-M3 cells lacking expression of PTEN,[8],promoted a reduction
same,"efficacy of q7d dosing (66, 132, 198 mg/kg) versus 30 mg/kg q3d",[9],equivalent efficacy
